Measurements: paper PMC10419416, “Fighting Pseudomonas aeruginosa Infections: Antibacterial and Antibiofilm Activity of D-Q53 CecB, a Synthetic Analog of a Silkworm Natural Cecropin B Variant” (International Journal of Molecular Sciences, 2023)
Non-standard residues stand in square brackets, D forms with d. Residues, ends and D or L forms follow the SMILES beside them. No end group written: not given here.

What was measured:
P. aeruginosa ATCC 27853 = assay: CFU assay of medium over treated 24 h old biofilm; type: cell-based, Pseudomonas aeruginosa; conditions: for mean CFUs/mL decrement vs untreated control: 1 MIC, 1 h; for living bacterial cells in the medium, Mean ± SEM: 1 h treatment of 24 h-old biofilm with 1 MIC (2.2 μM), four experiments, control 3.06 ± 2.07 × 10^14
[1] = system: P. aeruginosa ATCC 25668 strain; assay: EPS determination, phenol-sulfuric acid method; type: cell-based, Pseudomonas aeruginosa; conditions: 20 h incubation; 1/2 MIC L-Q53 CecB or 1/4 MIC D-Q53 CecB; OD490
Method: Experiments were performed in LB medium supplemented 2% glucose to enhance the EPS production, as in [46]. Five mL of bacterial cultures (1 × 10^6 cells/mL) were added to the same volume of the peptide at a dilution not-inhibiting the bacterial growth (final concentrations 1.1 and 0.55 µM for L- and D-Q53 CecB, respectively, as in Section 4.11) and incubated at 37 °C for 20 h with agitation (200 rpm). 10 mL of bacterial culture (5 × 10^5 cells/mL) without any peptide were grown in parallel. Samples were incubated at 37 °C for 20 h with agitation. Glucan levels were determined as in [46, 75] with some modifications. For each sample, 5 mL were centrifuged at 5000× g for 10 min, and supernatants were collected in clean tubes; pellets were washed twice in 2.5 mL autoclaved water and centrifuged at 5000× g for 10 min, collecting supernatants again. Three volumes of chilled absolute ethanol were added to the collected supernatants and placed at 4 °C ON to precipitate polysaccharides. After centrifugation at 10,000× g for 10 min, pellets were washed with chilled ethanol 70% and resuspended in 5 mL 0.1 M NaOH. Two mL of 5% aqueous solution of phenol and 5 mL of concentrated sulphuric acid were added. Mixtures were incubated 10 min at RT in the dark, vortexed 30 sec, placed in a water bath at 25 °C 20 min and read at 490 nm. The experiment was performed four times, each condition in duplicate.

[2] = system: T1, human neutrophil elastase; assay: Enzymatic digestion with human neutrophil elastase, RP-HPLC; type: in vitro ADME; conditions: human, isolated enzyme elastase, pH 7.5
T1 construct: purchased Merck
Method: (§1) L- and D-Q53 CecB peptides, as well as the human LL-37 peptide (Merck, Burlington, MA, USA), were dissolved in 10 mM Tris-HCl, pH 7.5, at a final concentration of 1 mg/mL. Subsequently, 120 μL of each peptide solution were incubated at 37 °C with 20 U of human leukocyte elastase (Merck) or P. aeruginosa elastase (Elastin Products Company, Owensville, MO, USA) and 5 μL of 10 mM Tris-HCl, pH 7.5. At given time intervals (30, 60, 120, and 300 min), a volume corresponding to 30 μg of each peptide was diluted in 70 μL of 1% trifluoroacetic acid (TFA) to stop the reaction. Peptide suspensions,v without any enzyme (undigested controls), were processed in parallel. Each solution was analyzed by RP-HPLC, using a Phenomenex LC C18 analytical column (300 Å, […], 250 × 4.6 mm; Phenomenex, Torrance, CA, USA) and a Widepore C18 security guard cartridge (4 × 3.0 mm; Phenomenex, Torrance, CA, USA), in a 30 min-linear Acetonitrile (ACN) gradient (from 0% to 40% for L- and D-Q53 CecB peptides; from 20% to 60% for LL-37). A Waters Alliance 2695 Separations Module connected to a 996 PDA (Waters, Milford, MA, USA) was employed for RP-HPLC.

P. aeruginosa elastase = system: T2, P. aeruginosa elastase; assay: Enzymatic digestion with P. aeruginosa elastase, RP-HPLC; type: in vitro ADME; conditions: isolated enzyme elastase; peptide 1 mg/mL in 10 mM Tris-HCl pH 7.5, 20 U P. aeruginosa elastase, 37 °C, 30 min, RP-HPLC C18 peak integration; read-out: % of full-length peptide
T2 construct: purchased Elastin Products Company
Method: as §1

[3] = system: P. aeruginosa ATCC 25668, ATCC 27853, and PAO1-L strains; assay: microbe, parasite or virus in culture; type: cell-based, Pseudomonas aeruginosa; conditions: LB medium, 24 h, 37 °C, OD600; same value for all three strains; triplicate, at least three experiments
Method: (§2) The following strains were used: P. aeruginosa ATCC 27853, ATCC 25668, and PAO1-L (Lausanne subline). All strains were grown at 37 °C in Luria Bertani (LB) medium or in Luria Bertani Agar (LBA) plates.
(§3) The antibacterial activities of L- and D-Q53 CecB were evaluated by determining (i) the MIC and (ii) the MBC. Tobramycin (Merck) was used as an antibiotic control. (i) An overnight (ON) bacterial culture was diluted to 1 × 10^6 cells/mL in LB medium. 50 µL/well were seeded in sterile polypropylene 96-well plates (Corning, Corning, NY, USA) and added with 50 µL LB medium, containing serial dilutions of each compound (final concentrations of L- and D-Q53 CecB peptides from 1.1 to 35.2 µM; final concentrations of tobramycin from 0.26 to 17 μM; each condition in triplicate). Microbial suspensions in the growing medium (positive control) and wells with only the medium (negative controls) were processed in parallel. Plates were incubated 24 h at 37 °C with agitation (300 rpm), and the absorbance was measured at 600 nm in a microplate reader. The MIC was considered as the lowest concentration determining a delta optical density at 600 nm (ΔOD600) equal to 0 ± 0.05. The ΔOD600 was determined by subtracting the OD600 recorded at time 0 from that obtained after 24 h. Each experiment was performed at least three times. […] For each sample, 100 μL of 1:10, 1:100, and 1:1000 dilutions were plated on LBA plates, and colonies were counted after 24 h at 37 °C. […] Each experiment was performed at least twice.

[4] = system: P. aeruginosa PAO1-L strain; assay: microbe, parasite or virus in culture; type: cell-based, Pseudomonas aeruginosa; conditions: value between parentheses, 24 h, 37 °C, plating on LBA
Method: as §2, §3

[5] = system: P. aeruginosa (non-mucoid: ATCC 27853; mucoid: ATCC 25668); design: method as in PMID 31045339; conditions: planktonic forms; cited from earlier work
Source text: (§4) We, therefore, determined the anti-Pseudomonas activity of D-Q53 CecB in comparison to the L- counterpart versus the planktonic forms of the same ATCC 27853 and ATCC 25668 strains, and a third POA1-L strain (Lausanne subline).

[6] = system: P. aeruginosa ATCC 27853 and ATCC 25668 strains; design: method as in PMID 31045339; conditions: planktonic forms; cited from earlier work
Source text: as §4

Molecule	mean CFUs/mL decrement vs untreated control (P. aeruginosa ATCC 27853)	living bacterial cells in the medium, Mean ± SEM (P. aeruginosa ATCC 27853)	effect on water-soluble EPS production [1]	remaining at 5 h, 1 mg/mL [2] [%]	remaining at 0.5 h, 1 mg/mL (P. aeruginosa elastase) [%]	MIC [3] [µM]	MBC [4] [µM]	MIC [5] [µM]	MBC [6] [µM]
CC[C@@H](C)[C@@H](NC(=O)[C@@H](C)NC(=O)[C@@H](CCCCN)NC(=O)[C@@H](C)NC(=O)[C@@H](CO)NC(=O)CNC(=O)[C@@H](CC(C)C)NC(=O)[C@H](NC(=O)[C@@H](CCC(N)=O)NC(=O)[C@H](NC(=O)[C@@H](C)NC(=O)[C@H]1CCCN1C(=O)CNC(=O)[C@@H](C)NC(=O)[C@@H](CCCCN)NC(=O)[C@H](NC(=O)[C@H](NC(=O)CNC(=O)[C@@H](CC(=O)O)NC(=O)[C@@H](CCCNC(=N)N)NC(=O)[C@H](NC(=O)[C@@H](CC(N)=O)NC(=O)[C@@H](CCCNC(=N)N)NC(=O)CNC(=O)[C@@H](CCSC)NC(=O)[C@@H](CCCCN)NC(=O)[C@@H](CCC(=O)O)NC(=O)[C@H](NC(=O)[C@@H](CCCCN)NC(=O)[C@@H](CCCCN)NC(=O)[C@@H](Cc1ccccc1)NC(=O)[C@H](NC(=O)[C@@H](CCCCN)NC(=O)[C@@H](Cc1c[nH]c2ccccc12)NC(=O)[C@H](N)CCCNC(=N)N)[C@H](C)CC)[C@H](C)CC)[C@H](C)CC)[C@H](C)CC)C(C)C)[C@H](C)CC)C(C)C)C(N)=O [D-Q53 CecB] (H-[dR][dW][dK][dI][dF][dK][dK][dI][dE][dK][dM]G[dR][dN][dI][dR][dD]G[dI][dV][dK][dA]G[dP][dA][dI][dQ][dV][dL]G[dS][dA][dK][dA][dI]-NH2; N-terminus and C-terminus assumed)	4 orders of magnitude	1.07 ± 1.06 × 10^10 CFUs/mL	significantly reduce	–	–	–	–	–	–
RWKIFKKIEKMGRNIRDGIVKAGPAIQVLGSAKAI-NH2 [L-Q53 CecB]	6 orders of magnitude	7.03 ± 4.10 × 10^8 CFUs/mL	did not show any significant effect	0.3	~0.2	2.20	4.40	2.2	11
